From patent US10508088B2, “Methods using HDAC11 inhibitors” (FORMA Therapeutics, Inc., priority 2016, dated 2019)

Tests used:
[1] = system: SET-2 cells; assay: Cell proliferation assay (CCK8); assay type: cell-based; settings: SET-2 (FIG. 4 legend)
Procedure: (§1) This example describes inhibition of in vitro cell proliferation with exemplary HDAC11 inhibitors. The effects of selective HDAC11 inhibitors on cell proliferation were measured in cell lines containing the MPN-associated mutations MPL W515L (Ba/F3 MPL W515L) and JAK2 V617F (Ba/F3 JAK2 V617F, HEL 92.1.7, SET-2). HEL 92.1.7 and SET-2 cells were purchased from the ATCC and DSMZ, respectively. Ba/F3 cells overexpressing either MPLW515L or JAK2V617F, which were cytokine independent, were generated by transforming Ba/F3 cells with retroviruses overexpressing either MPL W515L or JAK2V617F. For survival assays, cells were seeded in 96-well plates at the density of 0.1 million/ml with addition of indicated compounds and incubated at 37° C. for 48 h. CCK8 solution (Dojindo, Rockville, Md.) was added and absorbance at 450 nm was measured after 3 hours of incubation. Readings were normalized to dimethylsulfoxide (DMSO)-treated wells.

[2] = system: HEL 92.1.7 cells; assay: Cell proliferation assay (CCK8); assay type: cell-based; settings: HEL 92.1.7, 48 h
Procedure: as §1

[3] = target: Full length human recombinant HDAC11 (Homo sapiens (Human), UniProt Q96DB2); assay: Enzymatic HDAC11 assay, electrophoretic mobility shift; assay type: biochemical; settings: substrate FAM-RHKK(tri-fluor-Ac)-NH2, read-out: HDAC11 IC50 Range
Procedure: The enzymatic HDAC11 assay was performed using electrophoretic mobility shift assay. Full length human recombinant HDAC11 protein was expressed in baculoviral system and purified by affinity chromatography. The enzymatic reactions were assembled in 384 well plates in a total volume of 25 μL in a reaction buffer composing: 100 mM HEPES, pH 7.5, 25 mM KCl, 0.1% bovine serum albumin, 0.01% Triton X-100, 1% DMSO (from compounds) 2 μM of the fluorescently labeled peptide substrate and enzyme. The enzyme was added at a final concentration of 10 nM. The peptide substrate FAM-RHKK(tri-fluor-Ac)-NH2 was used. The compounds were tested at 12 concentrations spaced by 3× dilution intervals. Negative control samples (0%-inhibition in the absence of inhibitor) and positive control samples (100%-inhibition) were assembled in replicates of four in each assay plate. The reactions were incubated at 25° C. and quenched by the addition of 45 μL of termination buffer (100 mM HEPES, pH 7.5, 0.01% Triton X-100, 0.05% SDS).
The terminated assay plates were analyzed on LabChip® 3000 microfluidic electrophoresis instrument (Perkin Elmer/Caliper Life Sciences). The fluorescence intensity of the electrophoretically separated de-acetylated product and substrate peptide was measured. Activity in each sample was determined as the product to sum ratio (PSR):P/(S+P), where P is the peak height of the product peptide and S is the peak height of the substrate peptide. Percent inhibition (Pinh) is determined using the following equation: Pinh=(PSR0%−PSRinh)/(PSR0%−PSR100%)*100,
where PSRinh is the product sum ratio in the presence of inhibitor, PSR0% is the average product sum ration in the absence of inhibitor and PSR100% is the average product sum ratio in 100%-inhibition control samples. The IC50 values of inhibitors were determined by fitting the percent inhibition curves with 4 parameter dose-response model using XLfit 4 software.

Sequence of Full length human recombinant HDAC11 (Q96DB2 whole entry): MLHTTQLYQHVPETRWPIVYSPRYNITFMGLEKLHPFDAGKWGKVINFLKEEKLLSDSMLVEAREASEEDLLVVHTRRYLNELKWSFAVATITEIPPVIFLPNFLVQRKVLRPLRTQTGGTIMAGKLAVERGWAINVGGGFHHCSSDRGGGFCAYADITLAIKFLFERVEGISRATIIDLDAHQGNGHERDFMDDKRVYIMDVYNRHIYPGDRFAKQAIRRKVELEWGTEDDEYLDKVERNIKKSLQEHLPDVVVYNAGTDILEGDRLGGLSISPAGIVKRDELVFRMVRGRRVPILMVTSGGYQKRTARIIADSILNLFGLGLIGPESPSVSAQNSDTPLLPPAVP

N#CC[C@H](C1CCCC1)n1cc(-c2ncnc3[nH]ccc23)cn1 [ruxolitinib, reference compound]
growth of SET-2 cell line [1]: inhibited | growth of the HEL 92.1.7 cell line [2]: inhibited

O=C(NO)c1cccc2c1CC1(CCN(Cc3cc(-c4ccccc4)no3)C1=O)C2 (stereo not shown) [II-46, N-hydroxy-2′-oxo-1′-((3-phenylisoxazol-5-yl)methyl)-1,3-dihydrospiro[indene-2,3′-pyrrolidine]-4-carboxamide]
IC50 [3]: > 1 µM

O=C(NO)c1cccc2c1CC1(CCN(CC3CCC3)C1=O)C2 (stereo not shown) [II-10, 1′-(cyclobutylmethyl)-N-hydroxy-2′-oxo-1,3-dihydrospiro[indene-2,3′-pyrrolidine]-4-carboxamide]
IC50 [3]: > 1 µM

O=C(NO)c1cccc2c1CC1(CCN(Cc3noc(C4CCOCC4)n3)C1=O)C2 (stereo not shown) [II-49, N-hydroxy-2′-oxo-1′-((5-(tetrahydro-2H-pyran-4-yl)-1,2,4-oxadiazol-3-yl)methyl)-1,3-dihydrospiro[indene-2,3′-pyrrolidine]-4-carboxamide]
IC50 [3]: > 1 µM

O=C(NO)c1cccc2c1CC1(CCN(C3CC3)CC1)C2 [II-63, 1′-cyclopropyl-N-hydroxy-1,3-dihydrospiro[indene-2,4′-piperidine]-4-carboxamide]
IC50 [3]: > 1 µM

O=C(NO)c1cccc2c1CC1(CC2)CCN(c2ccc(C(F)(F)F)cc2)C1=O (stereo not shown) [II-71, N-hydroxy-2′-oxo-1′-(4-(trifluoromethyl)phenyl)-3,4-dihydro-1H-spiro[naphthalene-2,3′-pyrrolidine]-8-carboxamide]
IC50 [3]: 0.5 to 1 µM

CC(=O)N1CCC2(Cc3cccc(C(=O)NO)c3C2)C1 (stereo not shown) [II-59, 1′-acetyl-N-hydroxy-1,3-dihydrospiro[indene-2,3′-pyrrolidine]-4-carboxamide]
IC50 [3]: > 1 µM

O=C(NO)c1cccc2c1CC1(CCN(Cc3ccccc3)CC1)C2=O [II-65, 1′-benzyl-N-hydroxy-1-oxo-1,3-dihydrospiro[indene-2,4′-piperidine]-4-carboxamide]
IC50 [3]: > 1 µM

COc1ccc(CN2CCC3(Cc4cccc(C(=O)NO)c4C3)C2=O)cc1 (stereo not shown) [II-19, N-hydroxy-1′-(4-methoxybenzyl)-2′-oxo-1,3-dihydrospiro[indene-2,3′-pyrrolidine]-4-carboxamide]
IC50 [3]: > 1 µM

O=C(NO)c1cccc2c1CC1(CCN(C(=O)c3ccc(Cl)cc3)CC1)C2 [II-61, 1′-(4-chlorobenzoyl)-N-hydroxy-1,3-dihydrospiro[indene-2,4′-piperidine]-4-carboxamide]
IC50 [3]: > 1 µM

O=C(NO)c1cccc2c1CC1(CC2)CCN(c2cccc(C(F)(F)F)c2)C1=O (stereo not shown) [II-72, N-hydroxy-2′-oxo-1′-(3-(trifluoromethyl)phenyl)-3,4-dihydro-1H-spiro[naphthalene-2,3′-pyrrolidine]-8-carboxamide]
IC50 [3]: > 1 µM

O=C(NO)c1cccc2c1CCC1(CCN(Cc3ccc(C(F)(F)F)c(F)c3)C1=O)C2 (stereo not shown) [II-86, 1′-(3-fluoro-4-(trifluoromethyl)benzyl)-N-hydroxy-2′-oxo-3,4-dihydro-1H-spiro[naphthalene-2,3′-pyrrolidine]-5-carboxamide]
IC50 [3]: < 0.5 µM

O=C(NO)c1cccc2c1CC1(CCN(Cc3cccc(Br)c3)C1=O)C2 (stereo not shown) [II-33, 1′-(3-bromobenzyl)-N-hydroxy-2′-oxo-1,3-dihydrospiro[indene-2,3′-pyrrolidine]-4-carboxamide]
IC50 [3]: < 0.5 µM

O=C(NO)c1cccc2c1CC1(CCN(Cc3ccc(OCc4ccccc4)cc3)C1=O)C2 (stereo not shown) [II-41, 1′-(4-(benzyloxy)benzyl)-N-hydroxy-2′-oxo-1,3-dihydrospiro[indene-2,3′-pyrrolidine]-4-carboxamide]
IC50 [3]: < 0.5 µM

O=C(NO)c1cccc2c1OC1(CC2)CCN(S(=O)(=O)C2CCCCC2)CC1 [II-76, 1′-(cyclohexylsulfonyl)-N-hydroxyspiro[chromane-2,4′-piperidine]-8-carboxamide]
IC50 [3]: > 1 µM

COc1cccc(CN2CCC3(Cc4cccc(C(=O)NO)c4C3)C2=O)c1 (stereo not shown) [II-20, N-hydroxy-1′-(3-methoxybenzyl)-2′-oxo-1,3-dihydrospiro[indene-2,3′-pyrrolidine]-4-carboxamide]
IC50 [3]: > 1 µM

O=C(NO)c1cccc2c1CC1(CCN(c3ccc(C(F)(F)F)cc3)C1=O)C2 (stereo not shown) [II-11, N-hydroxy-2′-oxo-1′-(4-(trifluoromethyl)phenyl)-1,3-dihydrospiro[indene-2,3′-pyrrolidine]-4-carboxamide]
IC50 [3]: > 1 µM

O=C(NO)c1cccc2c1CCC1(CCN(c3ccc(C(F)(F)F)cc3)C1=O)C2 (stereo not shown) [II-88, N-hydroxy-2′-oxo-1′-(4-(trifluoromethyl)phenyl)-3,4-dihydro-1H-spiro[naphthalene-2,3′-pyrrolidine]-5-carboxamide]
IC50 [3]: < 0.5 µM

O=C(NO)c1cccc2c1CC1(CCN(C(=O)c3ccc(C(F)(F)F)cc3)C1)C2 (stereo not shown) [II-58, N-hydroxy-1′-(4-(trifluoromethyl)benzoyl)-1,3-dihydrospiro[indene-2,3′-pyrrolidine]-4-carboxamide]
IC50 [3]: > 1 µM

O=C(NO)c1cccc2c1CC1(CCN(Cc3cccc(F)c3)C1=O)C2 (stereo not shown) [II-26, 1′-(3-fluorobenzyl)-N-hydroxy-2′-oxo-1,3-dihydrospiro[indene-2,3′-pyrrolidine]-4-carboxamide]
IC50 [3]: > 1 µM

O=C(NO)c1cccc2c1CC1(CCN(Cc3cccc(C(F)(F)F)c3F)C1=O)C2 (stereo not shown) [II-43, 1′-(2-fluoro-3-(trifluoromethyl)benzyl)-N-hydroxy-2′-oxo-1,3-dihydrospiro[indene-2,3′-pyrrolidine]-4-carboxamide]
IC50 [3]: < 0.5 µM

CN1CCC2(Cc3cccc(C(=O)NO)c3C2)C1=O (stereo not shown) [II-2, N-hydroxy-1′-methyl-2′-oxo-1,3-dihydrospiro[indene-2,3′-pyrrolidine]-4-carboxamide]
IC50 [3]: > 1 µM

O=C(NO)c1cccc2c1CC1(CCN(Cc3cccc(C(F)(F)F)n3)C1=O)C2 (stereo not shown) [II-51, N-hydroxy-2′-oxo-1′-((6-(trifluoromethyl)pyridin-2-yl)methyl)-1,3-dihydrospiro[indene-2,3′-pyrrolidine]-4-carboxamide]
IC50 [3]: > 1 µM

O=C(NO)c1cccc2c1CCC1(CCN(c3cccc(C(F)(F)F)c3)C1=O)C2 (stereo not shown) [II-89, N-hydroxy-2′-oxo-1′-(3-(trifluoromethyl)phenyl)-3,4-dihydro-1H-spiro[naphthalene-2,3′-pyrrolidine]-5-carboxamide]
IC50 [3]: 0.5 to 1 µM

O=C(NO)c1cccc2c1CC1(CCN(Cc3ccccc3OC(F)(F)F)C1=O)C2 (stereo not shown) [II-32, N-hydroxy-2′-oxo-1′-(2-(trifluoromethoxy)benzyl)-1,3-dihydrospiro[indene-2,3′-pyrrolidine]-4-carboxamide]
IC50 [3]: 0.5 to 1 µM

O=C(NO)c1cccc2c1C[C@@]1(CCN(Cc3ccc(Cl)c(C(F)(F)F)c3)C1=O)C2 [II-3, (R)-1′-(4-chloro-3-(trifluoromethyl)benzyl)-N-hydroxy-2′-oxo-1,3-dihydrospiro[indene-2,3′-pyrrolidine]-4-carboxamide]
IC50 [3]: < 0.5 µM

O=C(NO)c1cccc2c1CC1(CCN(Cc3cccc(-c4ccccc4)c3)C1=O)C2 (stereo not shown) [II-18, 1′-([1,1′-biphenyl]-3-ylmethyl)-N-hydroxy-2′-oxo-1,3-dihydrospiro[indene-2,3′-pyrrolidine]-4-carboxamide]
IC50 [3]: < 0.5 µM
